Experimental data reported in patent US20240148821A1, “PHARMACEUTICAL USE OF CYCLIC PEPTIDE COMPOUND” (CHUGAI SEIYAKU KABUSHIKI KAISHA, priority 2021, published 2024).
Bridge positions count the residues as written; N and C are the ends. Square brackets hold non-standard residues; d marks the D form. Peptide text beside a SMILES is read from it. * marks the point of attachment. hPhe(3-Cl-4-CF3) = N[C@@H](CCc1ccc(C(F)(F)F)c(Cl)c1)C(=O)O; NMePhe(3-Cl) = CN[C@@H](Cc1cccc(Cl)c1)C(=O)O; NMePhe(4-Me) = CN[C@@H](Cc1ccc(C)cc1)C(=O)O; NMeMet(O2) = CN[C@@H](CCS(C)(=O)=O)C(=O)O; NMeGly(cPent) = CN[C@H](C(=O)O)C1CCCC1; NMeCha = CN[C@@H](CC1CCCCC1)C(=O)O; NMehLeu = CN[C@@H](CCC(C)C)C(=O)O; NMeChg = CN[C@H](C(=O)O)C1CCCCC1; NMeF = CN[C@@H](Cc1ccccc1)C(=O)O; NMeI = CC[C@H](C)[C@H](NC)C(=O)O; NMeD = CN[C@@H](CC(=O)O)C(=O)O; NMeL = CN[C@@H](CC(C)C)C(=O)O; NMeV = CN[C@H](C(=O)O)C(C)C; d(β3hA) = C[C@@H](N)CC(=O)O; Azetidin(1-yl) = C1CN(*)C1; NMeS = CN[C@@H](CO)C(=O)O; Morpholide = C1CN(*)CCO1; NMeA = CN[C@@H](C)C(=O)O; Piperidide = C1CCN(*)CC1; Ac5c = NC1(C(=O)O)CCCC1; Aze = O=C(O)[C@@H]1CCN1; Ac4c = NC1(C(=O)O)CCC1; NEtG = CCNCC(=O)O; Sar = CNCC(=O)O

System: Human pancreatic cancer cell line AsPC-1 (G12D mutation Kras)
Experiment: AsPC-1 cell growth inhibition (AsPC-1 CGI)
Assay type: cell-based
Conditions: read-out: AsPC-1 cell growth inhibition, 50% growth inhibitory concentration (IC50 value); 96 hours, CellTiter-Glo, values classified in ranges
Description: Test compounds were serially dilated with dimethyl sulfoxide, and 200 nL was then dispensed to a U-bottom 96-well plate using Labcyte Echo. […] The cell suspension was dispensed to a. plate containing a test compound at 100 μL per well and incubated at 37° C. in a 5% carbon dioxide gas incubator. 96 hours later, 80 μL of CellTiter-Glo (Promega) was added to each well and fluorescence was measured.

Structure (SMILES)	IC50 [nM]
CC[C@H](C)[C@@H]1NC(=O)[C@H](CC(C)C)N(C)C(=O)C[C@@H](C(=O)N2CCOCC2)N(C)C(=O)[C@H](C2CCCCC2)N(C)C(=O)C2(CCC2)NC(=O)[C@@H]2CCCN2C(=O)[C@H](CCc2ccc(C(F)(F)F)c(Cl)c2)NC(=O)CN(C)C(=O)[C@H](CC2CCCCC2)N(C)C(=O)CN(C)C(=O)CN(C)C1=O [Compound 1875] ([NMeL]I[Sar][Sar][NMeCha][Sar][hPhe(3-Cl-4-CF3)]P[Ac4c][NMeChg][NMeD]-Morpholide; lactam N-11)	≤ 20
CC[C@H](C)[C@@H]1NC(=O)[C@H](CC(C)C)N(C)C(=O)C[C@@H](C(=O)N(C)C)N(C)C(=O)[C@H]([C@@H](C)CC)N(C)C(=O)[C@H](C(C)C)NC(=O)[C@H](C)N(C)C(=O)[C@H](CCc2ccc(C(F)(F)F)c(Cl)c2)NC(=O)CN(C)C(=O)[C@H](Cc2ccc(C)cc2)N(C)C(=O)[C@@H]2CCN2C(=O)[C@H](C)N(C)C1=O [Compound 4] ([NMeL]I[NMeA][Aze][NMePhe(4-Me)][Sar][hPhe(3-Cl-4-CF3)][NMeA]V[NMeI][NMeD]-NMe2; lactam N-11)	> 500
CC[C@H](C)[C@@H]1NC(=O)[C@H](CC(C)C)N(C)C(=O)C[C@@H](C(=O)N2CCCCC2)N(C)C(=O)[C@H](COC)N(C)C(=O)C2(CCCC2)NC(=O)[C@@H]2CCCN2C(=O)[C@H](CCc2ccc(C(F)(F)F)c(Cl)c2)NC(=O)CN(C)C(=O)[C@H](CC2CCCCC2)N(C)C(=O)CN(C)C(=O)CN(C)C1=O [Compound 850] ([NMeL]I[Sar][Sar][NMeCha][Sar][hPhe(3-Cl-4-CF3)]P[Ac5c][NMeS](Me)[NMeD]-Piperidide; lactam N-11)	> 500
CC[C@H](C)[C@@H]1NC(=O)[C@H](CC(C)C)N(C)C(=O)C[C@@H](C(=O)N2CCCCC2)N(C)C(=O)[C@H](C(C)C)N(C)C(=O)C2(CCCC2)NC(=O)[C@@H]2CCCN2C(=O)[C@H](CCc2ccc(C(F)(F)F)c(Cl)c2)NC(=O)CN(C)C(=O)[C@H](CCS(C)(=O)=O)N(C)C(=O)[C@@H]2CCN2C(=O)[C@H](C)N(C)C1=O [Compound 235] ([NMeL]I[NMeA][Aze][NMeMet(O2)][Sar][hPhe(3-Cl-4-CF3)]P[Ac5c][NMeV][NMeD]-Piperidide; lactam N-11)	> 500
CC[C@H](C)[C@@H]1NC(=O)[C@H](CC(C)C)N(C)C(=O)C[C@@H](C(=O)N2CCC2)N(C)C(=O)[C@H](C2CCCC2)N(C)C(=O)C2(CCCC2)NC(=O)[C@@H]2CCCN2C(=O)[C@H](CCc2ccc(C(F)(F)F)c(Cl)c2)NC(=O)CN(C)C(=O)[C@H](CC2CCCCC2)N(C)C(=O)[C@@H]2CCN2C(=O)[C@H](C)N(C)C1=O [Compound 515] ([NMeL]I[NMeA][Aze][NMeCha][Sar][hPhe(3-Cl-4-CF3)]P[Ac5c][NMeGly(cPent)][NMeD]-{Azetidin(1-yl)}; lactam N-11)	≤ 20
CC[C@H](C)[C@@H]1NC(=O)[C@H](CC(C)C)N(C)C(=O)C[C@@H](C)NC(=O)[C@H](C(C)C)N(C)C(=O)C2(CCCC2)NC(=O)[C@@H]2CCCN2C(=O)[C@H](CCc2ccc(C(F)(F)F)c(Cl)c2)NC(=O)CN(C)C(=O)[C@H](CC2CCCCC2)N(C)C(=O)CN(C)C(=O)CN(CC)C1=O [Compound 210] (cyclo([Ac5c][NMeV][d(β3hA)][NMeL]I[NEtG][Sar][NMeCha][Sar][hPhe(3-Cl-4-CF3)]P))	> 500
CC[C@H](C)[C@@H]1NC(=O)[C@H](C)N(C)C(=O)C[C@@H](C(=O)N2CCCCC2)N(C)C(=O)[C@H](C(C)C)N(C)C(=O)C2(CCCC2)NC(=O)[C@@H]2CCCN2C(=O)[C@H](CCc2ccc(C(F)(F)F)c(Cl)c2)NC(=O)CN(C)C(=O)[C@H](CC2CCCCC2)N(C)C(=O)[C@@H]2CCN2C(=O)[C@H](CCC(C)C)N(C)C1=O [Compound 1595] ([NMeA]I[NMehLeu][Aze][NMeCha][Sar][hPhe(3-Cl-4-CF3)]P[Ac5c][NMeV][NMeD]-Piperidide; lactam N-11)	> 500
CC[C@H](C)[C@@H]1NC(=O)[C@H](CC(C)C)N(C)C(=O)C[C@@H](C(=O)N(C)C)N(C)C(=O)[C@H]([C@@H](C)CC)N(C)C(=O)C2(CCCC2)NC(=O)[C@@H]2CCCN2C(=O)[C@H](CCc2ccc(C(F)(F)F)c(Cl)c2)NC(=O)CN(C)C(=O)[C@H](Cc2ccc(C)cc2)N(C)C(=O)CN(C)C(=O)CN(C)C1=O [Compound 1836] ([NMeL]I[Sar][Sar][NMePhe(4-Me)][Sar][hPhe(3-Cl-4-CF3)]P[Ac5c][NMeI][NMeD]-NMe2; lactam N-11)	≤ 20
CC[C@H](C)[C@@H]1NC(=O)[C@H](C)N(C)C(=O)C[C@@H](C)NC(=O)[C@H](C(C)C)N(C)C(=O)C2(CCCC2)NC(=O)[C@@H]2CCCN2C(=O)[C@H](CCc2ccc(C(F)(F)F)c(Cl)c2)NC(=O)CN(C)C(=O)[C@H](Cc2ccccc2)N(C)C(=O)[C@@H]2CCCN2C(=O)CN(C)C1=O [Compound 1778] (cyclo([Ac5c][NMeV][d(β3hA)][NMeA]I[Sar]P[NMeF][Sar][hPhe(3-Cl-4-CF3)]P))	> 500
CC[C@H](C)[C@@H]1NC(=O)[C@H](CC(C)C)N(C)C(=O)C[C@@H](C(=O)N(C)C)N(C)C(=O)[C@H](C2CCCC2)N(C)C(=O)C2(CCCC2)NC(=O)[C@H](Cc2cccc(Cl)c2)N(C)C(=O)[C@H](CCc2ccc(C(F)(F)F)c(Cl)c2)NC(=O)CN(C)C(=O)[C@H](CC2CCCCC2)N(C)C(=O)[C@@H]2CCN2C(=O)[C@H](C)N(C)C1=O [Compound 179] ([NMeL]I[NMeA][Aze][NMeCha][Sar][hPhe(3-Cl-4-CF3)][NMePhe(3-Cl)][Ac5c][NMeGly(cPent)][NMeD]-NMe2; lactam N-11)	> 500
